These results are taken from patent US6277867A, “Pesticide compounds, compositions and process for the preparation thereof” (priority 1995, dated 2001).

Data set [1] deals with house fly (Musca domestica). As to conditions: in vivo, topical_or_ocular, 1440 min. As to the method:
Investigation of Synergistic Activity on House Fly (Musca domestica) Following Topical Application
In two parallel experiments 10 female. 2-4 day old house flies were treated on the vental side of their thorax with 0.2 μl of the test solution, with the help of Hamilton MicroLab P microdispenser. Beside fixed synergist dose of 1000 ng/fly the animals were treated with carbofuran at a dose of 20 ng/fly. For solvent cellosolve was used. Selection and counting of the flies were performed under the action of CO2. After treatment the flies were kept in plastic cups covered with tulle. Mortality after 24 hours was expressed in %.

Data set [2] deals with cotton bollworm (Helicoverpa armigera). Description: Synergist spectrum on cotton bollworm, topical. The format is in vivo. The method, then: (§1) Investigation of Synergist Spectrum on House Fly (Musca domestica) and Cotton Bollworm (Helicoverpa armigera) Following Topical Administration
(§2) Synerzistic activities of materials No. 279 and 599 of the present invention for various active ingredients were determined on house fly (Musca domestica) and cotton bollworm (Helicoverpa armigera) using methods of treatments as described in biological Examples 1 and 2. For the active ingredients ISO common names are given (see: Pesticide Manual 1994).

Data set [3] shares this test system. The data set can be described thus: Synergistic activity on cotton bollworm following topical application. The following applies: in vivo. The method, then:
Investigation of Synergistic Activity on Cotton Bollworm (Helicoverpa armigera) Following Topical Application
Treatment was performed similarity as described in Example 1. but L2 stadium grubs of cotton bollworms (Helicoverpa armigera) were treated as test animals. From the 24 hour dose--mortality data the LD50 (ng/grub) values were determined using probit analysis. None of the synergists acted at the applied 1000 ng/grub dose. Synergist ratio was calculated as the quotient of the LD50 values of carbofuran administered alone, and with the synergist. The experiments were performed in 2-4 replica.

Data set [4] has as its system house fly (Musca domestica). The data set can be described thus: Effect of the active ingredient:synergist ratio on the synergistic activity (flies). The method, then: Effect of the Active Ingredient:Synergist Ratio on the Synergistic Activity
Treatment was performed as described in Example 1. using Hamilton MicroLab P microdispenser. In two parallel experiments 10 female -3 day old flies were treated on the ventral side of their thorax with 0.2 μl test solution. Beside 1000-400-200-80 ng/fly fixed doses of the synergist they were treated with constant 20 ng/fly CARBOFURAN®. Selection and counting of the flies were performed under the action of CO2. After treatment the flies were kept in plastic cups covered with tulle. After 24 hours mortality % was recorded. Depending on the results the experiments were performed in 2-4 replica.

Data set [5] deals with house fly (Musca domestica). Description: Synergist spectrum on house fly, topical. The format is in vivo. The method, then:
as §1, §2

Data set [6] relates to resistant house fly, INSEL strain. Description: Synergistic activity on resistant house fly, INSEL strain. The class given is in vivo, Musca domestica. As to the method:
(§3) Investigation of Synergistic Activity on Resistant House Fly (Musca domestica) Populations
(§4) Investigation was carried out as described in biological Example 1. LD50 values and synergist ratios were determined as given in Example 2.

Data set [7] concerns resistant house fly, IX strain. Description: Synergistic activity on resistant house fly, IX strain. The format is in vivo, Musca domestica. As to the method:
as §3, §4

Data set [8] deals with pea aphid (Acyrthosiphon pisun). Description: Synergist activity against pea aphid, field trial. The class given is in vivo. As to conditions: dose 240 act. ingr./ha; two days after treatment. As to the method:
Synergist Activity Against Pea Aphid (Acyrthosiphon pisun)
Synergist activity of compound No. 599 was tested against pea aphid (Acyrthosiphon pisun) in field trials on small plots (10 m^2). 300 l/ha spray volume was applied using motoric sprayer (Maruyama). Efficacy was expressed by the average number of aphids/leaf before, and two days after the treatment, respectively. (Henderson and Tilton: J. Econ. Entomol., 48:157, 1955).

The test system of the next data set is flies. Description: Comparative investigations with known reference synergists on flies treated with carbofuran. As to conditions: flies treated with carbofuran and 1000 ng of the synergist. The format is in vivo. An excerpt:
These SR50 ratios were compared to those of the new compounds prepared by us.

The subject of data set [9] is two-spotted spider mite (Tetranychus urticae). The data set can be described thus: Synergism of acaricidal effect on two-spotted spider mite (leaf-disc dip). The following applies: alone, 48 hours, read-out: Mortality %. The format is in vivo. The method, then:
Synergism of Acaricidal Effect Investigated on Two-spotted Spider Mite (Tetranychus urticae)
From the first pair of leaves of a 1 week old bean plant leaf-discs of […] diameter were cut which were treated by dipping them (5 min) into the test solution consisting of the active ingredient and the synergist in definite concentrations. For the preparation of the stock solutions of required concentration, 10% acetone as co-solvent and 0.1% Tween-80 as detergent were applied. The dried leaf-discs were placed on wet surface and they were infected with […]-up female mites per leaf. After 48 hours the mortality was recorded using microscope and a brush. The experiment was performed in 4 replica.

Where [10] appears, read: carbofuran 20 ng/fly + synergist 80 ng/fly.
Setting [11] is: carbofuran 20 ng/fly + synergist 200 ng/fly.
Where [12] appears, read: carbofuran 20 ng/fly + synergist 400 ng/fly.
The mark [13] stands for this setting: house fly, in vivo, topical_or_ocular.

With `CC#CCOC(C)c1ccc(OC)c(OC)c1` (centres unmarked) [Compound 599], the mortality % in data set [1] is 100%. Moreover, the Synergist ratio in [2] (with BENDIOCARB) is greater than 20; in data set [2] (with CARBOFURAN) it was greater than 20; in data set [2] (with DIOXACARB) it was greater than 20; in [2] (with ISOPROCARB), greater than 20; in data set [2] (with PERMETHRIN), greater than 10; in [2] (with PROPOXUR), greater than 20. The Synergist ratio in data set [3] is greater than 5; in data set [5] (with AMINOCARB) it was greater than 20; in data set [5] (with BENDIOCARB) it was greater than 40; in data set [5] (with CARBOFURAN) it was greater than 20; in [5] (with DIOXACARB), greater than 40; in data set [5] (with ESBIOL), greater than 10. The Synergist ratio in [5] (with FENOBUCARB) is on record as greater than 20; in data set [5] (with IMIDACLOPRID), greater than 5; in [5] (with ISOPROCARB) it was greater than 40; in data set [5] (with METHOMYL) it was greater than 10; in data set [5] (with PERMETHRIN), greater than 5; in [5] (with PIRIMICARB), greater than 20. The results for the Synergist ratio in data set [5] (with PROPOXUR), in [5] (with TETRAMETHRIN) and in data set [5] (with THIODICARB) were greater than 40, greater than 5 and greater than 10, respectively. Further, the “24 hour mortality (%)” value in [4] (setting [10]) is recorded as 65%; in data set [4] (setting [11]), 90%; in data set [4] (setting [12]) it was 95%; in [4] (setting [13]) it was 100%.

`CNC(=O)Oc1ccccc1C(C)C` [ISOPROCARB, reference compound]: the LD50 in [6] (active ingredient alone) and in data set [7] (active ingredient alone) was greater than 100000 ng/fly in each case.

Take `N#Cc1nn(-c2c(Cl)cc(C(F)(F)F)cc2Cl)c(N)c1[S+]([O-])C(F)(F)F` (centres unmarked) [FIPRONIL]: the “E (%)” value in [8] is reported as 94.6%.

On to `CNC(=O)O/N=C/C(C)(C)SC` [ALDICARB, reference compound], for which the LD50 in data set [6] (active ingredient alone) is reported as 695 ng/fly; in data set [7] (active ingredient alone) it was 2104 ng/fly.

As a reminder, the mortality is the share of the test organisms that died. On to `CC#CCOCc1cccc2ccccc12` [Compound 279, 1-naphthyl-methyl 2-butynyl ether], for which the mortality % in data set [1] was found to be 72%. For the same compound, the Synergist ratio in data set [2] (with AZINPHOSMETHYL) was greater than 5; in data set [2] (with BENDIOCARB), greater than 10; in data set [2] (with CARBOFURAN), greater than 10; in [2] (with CHLORPYRIPHOS), greater than 5; in data set [2] (with LINDAN), greater than 5; in data set [2] (with PROPOXUR), greater than 10. The Synergist ratio is greater than 5 in [3]; greater than 20 in [5] (with AMINOCARB); greater than 5 in [5] (with AZINPHOSMETHYL); greater than 20 in [5] (with BENDIOCARB); greater than 20 in [5] (with CARBOFURAN); greater than 5 in [5] (with CHLORPYRIPHOS). Also, the Synergist ratio in data set [5] (with DIOXACARB) was greater than 20; in data set [5] (with ESBIOL) it was greater than 5; in data set [5] (with FENOBUCARB) it was greater than 10; in data set [5] (with IMIDACLOPRID), greater than 5; in data set [5] (with ISOPROCARB), greater than 40; in [5] (with LINDAN), greater than 5. The Synergist ratio was greater than 10 in [5] (with METHOMYL), greater than 20 in data set [5] (with PIRIMICARB), greater than 20 in data set [5] (with PROPOXUR) and greater than 10 in data set [5] (with THIODICARB). Moreover, the “Synergist ratio SR50” value in the data set on flies is recorded as 28.7. Moreover, the LD50 was 172 ng/fly in data set [6] (ALDICARB + 279); 150 ng/fly in data set [6] (BENDIOCARB + 279); 29 ng/fly in [6] (CARBOFURAN + 279); 794 ng/fly in data set [6] (ESBIOL + 279); 983 ng/fly in data set [6] (ISOPROCARB + 279); 46 ng/fly in [6] (METHOMYL + 279). The LD50 in data set [6] (PIRIMICARB + 279) amounted to 696 ng/fly; in data set [7] (ALDICARB + 279) it was 507 ng/fly; in data set [7] (BENDIOCARB + 279), 746 ng/fly; in [7] (CARBOFURAN + 279), 94 ng/fly; in [7] (ISOPROCARB + 279), 2145 ng/fly; in data set [7] (METHOMYL + 279), 109 ng/fly. Further, in [7] (PIRIMICARB + 279), the LD50 was 3562 ng/fly. Also, the SR in data set [6] (ALDICARB + 279) is given as 4; in data set [6] (BENDIOCARB + 279) it was 667; in data set [6] (CARBOFURAN + 279), 530; in data set [6] (ESBIOL + 279) it was 13; in [6] (ISOPROCARB + 279), 102; in data set [6] (METHOMYL + 279), 10. The SR in data set [6] (PIRIMICARB + 279) is on record as 145; in data set [7] (ALDICARB + 279), 4; in data set [7] (BENDIOCARB + 279) it was 134; in [7] (CARBOFURAN + 279), 4760; in [7] (ISOPROCARB + 279), 47; in data set [7] (METHOMYL + 279) it was 5. Moreover, the SR in [7] (PIRIMICARB + 279) came out at 115. The mortality at 31 ppm in data set [9] was 0%. The mortality at 62 ppm in data set [9] worked out at 6%. Moreover, the mortality at 125 ppm in data set [9] worked out at 8%. The mortality at 250 ppm in data set [9] (250 ppm) turned out to be 18%. Besides, the mortality at 500 ppm in data set [9] (500 ppm) worked out at 30%.

In the case of `CC#CCOC(=O)c1ccc2c(c1)OCO2` [Compound 502, 2-Butynyl 1,3-benzodioxol-5-carboxylate], in data set [1], the mortality % worked out at 47%. For the same compound, the “Synergist ratio SR50” value in the data set on flies came out at 6.28. Besides, the Synergist ratio in data set [3] is given as greater than 5.

In the case of `CC#CCON=C(C)c1cccc2ccccc12` [Compound 571, 1-Aceto-naphthon-oxim-(2-butynyl)-ether], in data set [1], the mortality % is recorded as 53%. Further, in the data set with flies, the “Synergist ratio SR50” value amounted to 10.02. In addition, in data set [3], the Synergist ratio is reported as greater than 5.

`CC(C)OC(=O)C(O)(c1ccc(Br)cc1)c1ccc(Br)cc1` [BROMOROPYLATE]: in data set [9], the mortality at 31 ppm turned out to be 18%, the mortality at 62 ppm amounted to 28% and the mortality at 125 ppm came to 90%.

On to `CC#CCOCc1c(Cl)cccc1Cl` [Compound 503, 2,6-Dichloro-1-(2-butynyloxy-methyl)-benzene], for which, in data set [1], the mortality % came to 95%. For the same compound, the “Synergist ratio SR50” value in the data set on flies is recorded as 21.16. In [3], the Synergist ratio was greater than 5. Besides, the “24 hour mortality (%)” value in [4] (setting [10]) was found to be 37%; in data set [4] (setting [11]) it was 50%; in [4] (setting [12]), 65%; in [4] (setting [13]), 93%.

`CC#CCCOc1cccc2c1OC(C)(C)C2` [Compound 418, 2,3-dihydro-2,2-dimethyl-7-(3-pentynyloxy)-benzofuran]: the mortality % in [1] was 63%. In addition, the “Synergist ratio SR50” value with flies turned out to be 20.5. The Synergist ratio in data set [3] is listed as greater than 5.

Consider `CNC(=O)ON=C(C)SC` [METHOMYL, reference compound], for which the LD50 in data set [6] (active ingredient alone) was 475 ng/fly; in data set [7] (active ingredient alone), 851 ng/fly.

For `CNC(=O)Oc1cccc2c1OC(C)(C)O2` [BENDIOCARB, reference compound], the LD50 in data set [6] (active ingredient alone) and in [7] (active ingredient alone) was 100000 ng/fly in each case.

Consider `CC#CCOCc1ccc(OC)c(OC)c1` [Compound 493, (2-Butynyloxy-methyl)-3,4-dimethoxy-benzene], for which the mortality % in data set [1] is recorded as 100%. In the data set with flies, the “Synergist ratio SR50” value is listed as 32.84. Further, the Synergist ratio in [3] was greater than 5. Further, the “24 hour mortality (%)” value worked out at 75% in data set [4] (setting [10]), 88% in [4] (setting [11]), 94% in data set [4] (setting [12]) and 100% in [4] (setting [13]).
